Assay results published in ChEMBL document CHEMBL5465560, “Selectivity Literature for EUbOPEN Chemogenomic Library” (2024).

Legend:
[1] = target: Death-associated protein kinase 2 (Homo sapiens) (UniProt Q9UIK4); details: at 10 µM
[2] = target: T1, Gamma-aminobutyric acid receptor subunit alpha-1 (Homo sapiens) (UniProt P14867); assay: Selectivity interaction (Eurofins CEREP Diversity Profile (receptors and ion channels)) EUB0000279b GABRA1; details: at 10 µM
T1 sequence (whole entry): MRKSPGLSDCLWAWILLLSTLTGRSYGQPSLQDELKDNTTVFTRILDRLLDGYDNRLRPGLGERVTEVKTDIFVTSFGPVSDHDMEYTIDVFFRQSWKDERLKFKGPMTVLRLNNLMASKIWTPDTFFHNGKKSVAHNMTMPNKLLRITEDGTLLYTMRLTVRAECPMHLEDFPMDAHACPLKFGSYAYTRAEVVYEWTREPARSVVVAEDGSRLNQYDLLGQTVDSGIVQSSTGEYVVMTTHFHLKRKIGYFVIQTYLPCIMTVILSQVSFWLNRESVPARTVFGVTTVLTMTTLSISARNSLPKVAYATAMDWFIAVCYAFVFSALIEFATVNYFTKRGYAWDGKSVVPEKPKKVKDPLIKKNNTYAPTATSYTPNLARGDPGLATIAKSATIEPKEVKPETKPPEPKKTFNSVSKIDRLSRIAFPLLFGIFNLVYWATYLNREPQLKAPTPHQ

[3] = target: Serine/threonine-protein kinase PRP4 homolog (Homo sapiens) (UniProt Q13523); assay: Selectivity interaction (Ambit KINOMEscan and KiNATiv profiling in Jurkat cells) EUB0000090b PRPF4; assay type: cell-based; details: at 1 µM
[4] = target: T2, Peripheral plasma membrane protein CASK (Homo sapiens) (UniProt O14936); assay: Selectivity interaction (KinomeScan (DiscoverX)) EUB0000655a CASK; details: at 10 µM
T2 sequence (whole entry): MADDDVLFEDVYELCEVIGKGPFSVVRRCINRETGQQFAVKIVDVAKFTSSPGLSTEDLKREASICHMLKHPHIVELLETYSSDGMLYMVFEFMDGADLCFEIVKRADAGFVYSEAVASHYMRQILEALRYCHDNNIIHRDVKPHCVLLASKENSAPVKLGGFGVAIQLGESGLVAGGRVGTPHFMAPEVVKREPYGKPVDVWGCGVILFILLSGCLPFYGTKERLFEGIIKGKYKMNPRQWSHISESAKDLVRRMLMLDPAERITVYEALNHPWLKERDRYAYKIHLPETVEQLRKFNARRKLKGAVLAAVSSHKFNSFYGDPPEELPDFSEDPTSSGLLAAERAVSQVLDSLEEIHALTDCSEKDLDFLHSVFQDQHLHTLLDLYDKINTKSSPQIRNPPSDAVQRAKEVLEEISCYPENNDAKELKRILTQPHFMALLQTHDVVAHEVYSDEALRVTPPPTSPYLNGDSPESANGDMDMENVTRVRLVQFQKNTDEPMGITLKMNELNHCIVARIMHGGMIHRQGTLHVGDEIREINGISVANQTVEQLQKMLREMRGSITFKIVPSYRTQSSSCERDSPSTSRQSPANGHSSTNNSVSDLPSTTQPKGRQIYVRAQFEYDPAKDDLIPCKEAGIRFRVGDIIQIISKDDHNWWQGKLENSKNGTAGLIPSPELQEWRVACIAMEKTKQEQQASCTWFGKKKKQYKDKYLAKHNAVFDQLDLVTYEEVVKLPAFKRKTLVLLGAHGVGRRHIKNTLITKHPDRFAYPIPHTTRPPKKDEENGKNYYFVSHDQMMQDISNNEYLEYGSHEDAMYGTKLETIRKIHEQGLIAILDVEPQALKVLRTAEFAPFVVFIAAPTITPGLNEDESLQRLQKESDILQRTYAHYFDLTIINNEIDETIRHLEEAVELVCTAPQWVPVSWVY

Aurora kinase B = Aurora kinase B (Homo sapiens, UniProt Q96GD4); assay: Selectivity interaction (KinomeScan (DiscoverX)) EUB0000618a AURKB; details: at 10 µM
[5] = system: Tyrosine-protein kinase ABL1 (Homo sapiens), P00519 [F317L]; assay: Selectivity interaction (KinomeScan (DiscoverX)) EUB0000618a ABL1; details: at 10 µM
[6] = target: Mitogen-activated protein kinase 1 (Homo sapiens, UniProt P28482); details: at 10 µM
[7] = target: T3, Dual specificity protein kinase TTK (Homo sapiens) (UniProt P33981); assay: Selectivity interaction (KinomeScan (DiscoverX)) EUB0000666a TTK; details: at 10 µM
T3 sequence (whole entry): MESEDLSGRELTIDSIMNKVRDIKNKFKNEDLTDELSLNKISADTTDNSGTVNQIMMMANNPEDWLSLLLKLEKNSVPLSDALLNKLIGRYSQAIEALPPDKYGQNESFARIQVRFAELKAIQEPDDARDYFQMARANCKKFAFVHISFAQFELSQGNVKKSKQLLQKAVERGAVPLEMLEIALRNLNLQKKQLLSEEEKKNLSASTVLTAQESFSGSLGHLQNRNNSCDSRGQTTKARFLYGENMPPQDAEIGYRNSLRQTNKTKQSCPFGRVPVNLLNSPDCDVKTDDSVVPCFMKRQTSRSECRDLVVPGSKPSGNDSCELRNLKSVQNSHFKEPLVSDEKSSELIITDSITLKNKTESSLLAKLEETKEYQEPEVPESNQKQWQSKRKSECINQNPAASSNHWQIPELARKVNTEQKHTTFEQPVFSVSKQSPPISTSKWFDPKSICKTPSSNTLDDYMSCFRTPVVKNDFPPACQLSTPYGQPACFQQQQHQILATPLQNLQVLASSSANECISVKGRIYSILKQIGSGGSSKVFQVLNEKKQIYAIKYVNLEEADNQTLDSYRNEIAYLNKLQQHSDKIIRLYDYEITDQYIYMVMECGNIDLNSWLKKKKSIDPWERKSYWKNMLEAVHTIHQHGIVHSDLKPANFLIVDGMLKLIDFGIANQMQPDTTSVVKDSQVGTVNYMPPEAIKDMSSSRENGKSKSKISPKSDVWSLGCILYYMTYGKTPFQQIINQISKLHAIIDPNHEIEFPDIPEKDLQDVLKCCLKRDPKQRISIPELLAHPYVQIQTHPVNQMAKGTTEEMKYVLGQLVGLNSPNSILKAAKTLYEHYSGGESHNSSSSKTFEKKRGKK

[8] = target: Fibroblast growth factor receptor 2 (Homo sapiens) (UniProt P21802); assay: Selectivity interaction (Kinase screening (Nanosyn)) EUB0000604a FGFR2
Sequence of Fibroblast growth factor receptor 2 (Homo sapiens) (P21802 22-821 limits assumed): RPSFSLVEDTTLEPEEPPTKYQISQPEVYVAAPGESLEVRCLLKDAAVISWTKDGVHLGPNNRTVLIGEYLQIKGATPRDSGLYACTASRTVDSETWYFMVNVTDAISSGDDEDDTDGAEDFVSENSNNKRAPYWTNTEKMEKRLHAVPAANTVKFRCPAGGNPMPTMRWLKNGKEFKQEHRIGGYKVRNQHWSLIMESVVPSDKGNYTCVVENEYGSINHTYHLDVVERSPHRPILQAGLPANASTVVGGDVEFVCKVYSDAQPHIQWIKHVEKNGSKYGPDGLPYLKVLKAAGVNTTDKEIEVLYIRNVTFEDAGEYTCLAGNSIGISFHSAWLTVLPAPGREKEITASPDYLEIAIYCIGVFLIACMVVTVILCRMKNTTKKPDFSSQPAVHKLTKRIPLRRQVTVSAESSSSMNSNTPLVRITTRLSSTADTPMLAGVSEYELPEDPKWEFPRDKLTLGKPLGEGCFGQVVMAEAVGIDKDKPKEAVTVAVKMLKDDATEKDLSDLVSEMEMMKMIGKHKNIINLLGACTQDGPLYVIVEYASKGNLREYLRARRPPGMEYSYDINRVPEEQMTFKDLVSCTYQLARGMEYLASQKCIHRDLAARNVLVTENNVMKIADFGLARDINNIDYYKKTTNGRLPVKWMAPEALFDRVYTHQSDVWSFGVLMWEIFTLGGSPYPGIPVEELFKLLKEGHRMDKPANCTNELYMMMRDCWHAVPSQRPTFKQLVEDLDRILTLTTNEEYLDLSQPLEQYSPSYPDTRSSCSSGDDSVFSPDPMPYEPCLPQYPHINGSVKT

Sequence of Tyrosine-protein kinase ABL1 (Homo sapiens), P00519 [F317L] (P00519 whole entry F317L): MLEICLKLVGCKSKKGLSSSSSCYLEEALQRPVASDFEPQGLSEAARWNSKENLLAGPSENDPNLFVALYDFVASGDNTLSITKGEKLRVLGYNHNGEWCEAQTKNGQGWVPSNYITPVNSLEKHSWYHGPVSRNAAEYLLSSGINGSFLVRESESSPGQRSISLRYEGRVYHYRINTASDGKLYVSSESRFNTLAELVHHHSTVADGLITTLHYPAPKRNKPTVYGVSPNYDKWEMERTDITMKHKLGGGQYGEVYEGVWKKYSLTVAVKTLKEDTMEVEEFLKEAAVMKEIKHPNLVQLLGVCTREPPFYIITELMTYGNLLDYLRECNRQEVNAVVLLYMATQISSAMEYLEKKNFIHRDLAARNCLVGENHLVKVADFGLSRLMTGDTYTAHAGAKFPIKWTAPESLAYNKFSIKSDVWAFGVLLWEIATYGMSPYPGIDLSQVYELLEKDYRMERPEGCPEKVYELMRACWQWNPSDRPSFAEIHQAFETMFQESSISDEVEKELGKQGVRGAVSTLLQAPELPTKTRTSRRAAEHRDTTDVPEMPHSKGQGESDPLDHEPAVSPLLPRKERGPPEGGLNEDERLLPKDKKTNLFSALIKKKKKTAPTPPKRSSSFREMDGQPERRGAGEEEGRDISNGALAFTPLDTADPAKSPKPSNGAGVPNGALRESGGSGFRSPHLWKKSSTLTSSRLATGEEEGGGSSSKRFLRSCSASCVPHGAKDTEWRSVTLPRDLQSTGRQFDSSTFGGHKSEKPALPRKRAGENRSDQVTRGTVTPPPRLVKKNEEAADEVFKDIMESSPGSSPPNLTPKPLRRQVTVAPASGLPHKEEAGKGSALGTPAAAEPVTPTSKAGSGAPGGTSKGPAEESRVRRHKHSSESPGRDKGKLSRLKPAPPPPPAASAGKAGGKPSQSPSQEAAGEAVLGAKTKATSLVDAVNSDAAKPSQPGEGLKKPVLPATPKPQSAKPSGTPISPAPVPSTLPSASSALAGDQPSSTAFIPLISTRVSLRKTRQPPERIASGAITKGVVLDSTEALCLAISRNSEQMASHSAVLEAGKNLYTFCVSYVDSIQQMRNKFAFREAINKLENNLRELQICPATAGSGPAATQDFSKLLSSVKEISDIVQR
Sequence of Death-associated protein kinase 2 (Homo sapiens) (Q9UIK4 whole entry, looked up): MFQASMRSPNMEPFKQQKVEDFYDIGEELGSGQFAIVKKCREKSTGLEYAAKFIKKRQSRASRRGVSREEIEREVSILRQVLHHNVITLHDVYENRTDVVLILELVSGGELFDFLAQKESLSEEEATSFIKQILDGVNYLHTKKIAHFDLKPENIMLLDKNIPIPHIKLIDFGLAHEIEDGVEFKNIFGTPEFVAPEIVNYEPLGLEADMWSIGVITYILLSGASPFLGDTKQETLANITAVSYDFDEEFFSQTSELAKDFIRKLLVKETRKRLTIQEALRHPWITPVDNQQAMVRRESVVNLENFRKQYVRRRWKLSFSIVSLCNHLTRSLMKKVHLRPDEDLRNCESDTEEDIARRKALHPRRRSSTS
Sequence of Serine/threonine-protein kinase PRP4 homolog (Homo sapiens) (Q13523 whole entry): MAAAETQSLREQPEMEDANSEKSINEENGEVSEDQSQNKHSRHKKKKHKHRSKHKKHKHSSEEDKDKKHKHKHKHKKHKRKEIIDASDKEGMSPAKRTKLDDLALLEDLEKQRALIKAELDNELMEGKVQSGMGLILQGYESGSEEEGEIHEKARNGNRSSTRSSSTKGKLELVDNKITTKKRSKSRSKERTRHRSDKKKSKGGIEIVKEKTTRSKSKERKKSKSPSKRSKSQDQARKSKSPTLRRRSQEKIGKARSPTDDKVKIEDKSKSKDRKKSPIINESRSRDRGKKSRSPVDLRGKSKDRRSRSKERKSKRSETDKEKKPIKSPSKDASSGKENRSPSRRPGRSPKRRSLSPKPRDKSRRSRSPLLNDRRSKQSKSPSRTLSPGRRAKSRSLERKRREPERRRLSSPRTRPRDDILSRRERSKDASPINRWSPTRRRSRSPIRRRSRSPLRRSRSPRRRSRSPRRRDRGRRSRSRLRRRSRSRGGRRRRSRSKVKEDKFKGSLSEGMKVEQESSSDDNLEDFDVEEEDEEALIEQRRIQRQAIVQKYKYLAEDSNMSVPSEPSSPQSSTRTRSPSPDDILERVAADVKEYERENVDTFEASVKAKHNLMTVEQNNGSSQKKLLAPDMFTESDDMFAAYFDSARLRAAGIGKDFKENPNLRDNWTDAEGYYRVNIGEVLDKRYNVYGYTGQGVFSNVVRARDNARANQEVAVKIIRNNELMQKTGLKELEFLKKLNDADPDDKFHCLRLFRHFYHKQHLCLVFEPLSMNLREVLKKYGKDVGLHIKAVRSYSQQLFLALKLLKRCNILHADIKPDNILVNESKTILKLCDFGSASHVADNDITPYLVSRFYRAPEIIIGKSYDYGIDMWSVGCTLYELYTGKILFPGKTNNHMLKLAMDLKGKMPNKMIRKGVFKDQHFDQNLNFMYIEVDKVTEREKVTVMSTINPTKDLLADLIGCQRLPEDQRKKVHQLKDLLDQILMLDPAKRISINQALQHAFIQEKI
Sequence of Mitogen-activated protein kinase 1 (P28482 whole entry): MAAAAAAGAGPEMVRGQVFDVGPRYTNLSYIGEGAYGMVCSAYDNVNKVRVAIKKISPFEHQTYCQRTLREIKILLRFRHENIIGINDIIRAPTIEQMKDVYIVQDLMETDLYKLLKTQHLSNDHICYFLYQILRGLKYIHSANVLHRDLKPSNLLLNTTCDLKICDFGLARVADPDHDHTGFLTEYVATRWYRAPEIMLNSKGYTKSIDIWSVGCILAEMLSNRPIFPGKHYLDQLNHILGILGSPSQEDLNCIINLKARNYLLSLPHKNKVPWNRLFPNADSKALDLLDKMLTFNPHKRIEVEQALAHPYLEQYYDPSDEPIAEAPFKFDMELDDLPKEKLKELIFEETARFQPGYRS
Sequence of Aurora kinase B (Q96GD4 whole entry): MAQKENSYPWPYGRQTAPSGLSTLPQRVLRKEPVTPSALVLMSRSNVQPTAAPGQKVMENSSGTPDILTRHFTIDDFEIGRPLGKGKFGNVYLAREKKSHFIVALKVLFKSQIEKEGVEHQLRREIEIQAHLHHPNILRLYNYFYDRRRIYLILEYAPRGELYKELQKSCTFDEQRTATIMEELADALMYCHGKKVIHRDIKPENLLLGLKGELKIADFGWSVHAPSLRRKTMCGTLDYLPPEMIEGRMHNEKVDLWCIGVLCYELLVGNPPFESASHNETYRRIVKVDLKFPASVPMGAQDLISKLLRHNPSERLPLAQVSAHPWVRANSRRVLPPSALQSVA

## CCN(CC)CCCCNc1ncc2cc(-c3cc(OC)cc(OC)c3)c(NC(=O)NC(C)(C)C)nc2n1
[1]
  % of control: 100%

## CC(=O)c1cc(-c2ccccc2OCC2CC2)c2ncccn12
[2]
  % of control: 112%

## CN(C)C/C=C/C(=O)Nc1ccc(C(=O)N2CCCC(Nc3ncc(Cl)c(-c4c[nH]c5ccccc45)n3)C2)cc1 (centres undefined)
[3]
  % of control: 74%

## CN(C)CCOc1ccc(-c2nc(-c3ccncc3)c(-c3ccc4c(c3)CC/C4=N\O)[nH]2)cc1
[4]
  % of control: 82%

## O[C@H]1CC[C@H](Nc2ncc3nc(Nc4c(F)cc(F)cc4F)n([C@H]4CCOC4)c3n2)CC1
Aurora kinase B
  % of control: 100%
[5]
  % of control: 30%

## Cc1cc([C@@H](C)Nc2ccccc2C(=O)O)c2nc(N3CCOCC3)cc(=O)n2c1 [AZD-6482]
[6]
  % of control: 100%

## O=C(NOC[C@H](O)CO)c1ccc(F)c(F)c1Nc1ccc(I)cc1F
[7]
  % of control: 100%

## Cc1cnc(Nc2ccc(F)cc2Cl)nc1-c1c[nH]c(C(=O)N[C@H](CO)c2cccc(Cl)c2)c1
[8]
  % of inhibition: 12%
